# From patent US20150307520A1, “NOVEL HETEROARYL AND HETEROCYCLE COMPOUNDS, COMPOSITIONS AND METHODS THEREOF” (HUTCHISON MEDIPHARMA LIMITED, priority 2012, published 2015)
# Tests used:
# Type in all cases: biochemical
# p110β/p85α = p110β/p85α (Homo sapiens, UniProt P42338); experiment: Transcreener KINASE Assay, kinase inhibition of p110β/p85α; details: for PI3Kβ IH % @ 1 uM: 1 uM test compound; for IC50: read-out: PI3Kβ IC50
# In short: (§1)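 Steps: compound (2% DMSO final) plus enzyme in HEPES/NaCl/EGTA/CHAPS/3 mM MgCl2/1 mM DTT buffer; start with PIP2/ATP addition (30 uM/10 uM solution); 80 min RT; add ADP detection mix, 60 min RT; read fluorescence polarization.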
# p110δ/p85α = p110δ/p85α (Homo sapiens, UniProt O00329); experiment: Transcreener KINASE Assay, kinase inhibition of p110δ/p85α; details: for PI3Kδ IH % @ 1 uM: 1 uM test compound; for IC50: read-out: PI3Kδ IC50
# In short: as §1
# p110γ = p110γ (Homo sapiens, UniProt P48736); experiment: Transcreener KINASE Assay, kinase inhibition of p110γ; details: for PI3Kγ IH % @ 1 uM: 1 uM test compound; for IC50: read-out: PI3Kγ IC50
# In short: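 Steps: enzyme reaction with compound, 80 min at room temperature; add ADP detection reagent, incubate 60 min at room temperature; read fluorescence polarization. Inhibition and IC50 values are derived from the ADP signal.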
# p110δ/p85α, sequence (O00329 whole entry): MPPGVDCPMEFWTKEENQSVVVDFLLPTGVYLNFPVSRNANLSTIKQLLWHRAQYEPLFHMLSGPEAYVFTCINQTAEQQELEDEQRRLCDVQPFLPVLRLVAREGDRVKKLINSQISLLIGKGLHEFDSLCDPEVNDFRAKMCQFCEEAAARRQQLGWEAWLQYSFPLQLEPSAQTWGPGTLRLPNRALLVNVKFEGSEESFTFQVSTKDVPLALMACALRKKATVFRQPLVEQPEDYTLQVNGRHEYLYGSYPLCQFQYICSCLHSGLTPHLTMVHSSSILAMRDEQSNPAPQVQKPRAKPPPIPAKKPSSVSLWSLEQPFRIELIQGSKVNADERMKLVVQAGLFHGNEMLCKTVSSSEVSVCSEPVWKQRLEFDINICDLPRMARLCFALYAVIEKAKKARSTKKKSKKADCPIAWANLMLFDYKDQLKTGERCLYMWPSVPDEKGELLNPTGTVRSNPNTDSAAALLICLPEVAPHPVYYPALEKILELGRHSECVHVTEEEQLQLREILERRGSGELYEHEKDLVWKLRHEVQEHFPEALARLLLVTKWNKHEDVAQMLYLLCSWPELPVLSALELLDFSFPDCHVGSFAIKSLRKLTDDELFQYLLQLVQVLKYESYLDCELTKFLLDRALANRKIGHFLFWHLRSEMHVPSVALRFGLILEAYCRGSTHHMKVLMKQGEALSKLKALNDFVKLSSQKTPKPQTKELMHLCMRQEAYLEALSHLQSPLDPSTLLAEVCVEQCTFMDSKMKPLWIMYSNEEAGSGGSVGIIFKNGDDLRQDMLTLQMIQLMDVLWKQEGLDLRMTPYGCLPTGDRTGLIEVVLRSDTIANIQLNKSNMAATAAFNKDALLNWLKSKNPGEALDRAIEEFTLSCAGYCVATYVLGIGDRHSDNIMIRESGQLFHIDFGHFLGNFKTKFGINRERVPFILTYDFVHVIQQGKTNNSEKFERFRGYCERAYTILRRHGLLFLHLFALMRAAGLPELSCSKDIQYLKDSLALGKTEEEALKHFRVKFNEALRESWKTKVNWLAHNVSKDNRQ
# p110δ/p85α, sequence (P27986 whole entry partner): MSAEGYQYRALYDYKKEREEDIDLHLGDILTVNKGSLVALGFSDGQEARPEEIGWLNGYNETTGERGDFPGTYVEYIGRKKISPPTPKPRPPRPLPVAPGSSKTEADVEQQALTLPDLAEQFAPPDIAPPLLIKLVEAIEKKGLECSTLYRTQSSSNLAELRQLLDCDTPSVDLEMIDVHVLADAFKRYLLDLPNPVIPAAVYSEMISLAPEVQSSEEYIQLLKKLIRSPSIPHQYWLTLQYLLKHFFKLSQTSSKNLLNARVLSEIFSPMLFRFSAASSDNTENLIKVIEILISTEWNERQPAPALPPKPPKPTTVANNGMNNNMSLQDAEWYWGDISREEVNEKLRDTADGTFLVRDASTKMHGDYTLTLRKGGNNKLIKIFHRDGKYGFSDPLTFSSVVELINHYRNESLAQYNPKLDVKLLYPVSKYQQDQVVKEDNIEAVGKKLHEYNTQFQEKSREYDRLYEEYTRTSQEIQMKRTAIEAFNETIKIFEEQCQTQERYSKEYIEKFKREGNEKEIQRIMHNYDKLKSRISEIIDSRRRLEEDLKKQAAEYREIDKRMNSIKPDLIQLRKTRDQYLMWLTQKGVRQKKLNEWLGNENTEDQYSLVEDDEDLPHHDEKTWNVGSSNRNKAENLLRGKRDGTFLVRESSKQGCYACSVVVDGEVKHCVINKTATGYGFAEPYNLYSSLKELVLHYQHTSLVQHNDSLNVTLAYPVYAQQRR
# p110β/p85α, sequence (P42338 whole entry): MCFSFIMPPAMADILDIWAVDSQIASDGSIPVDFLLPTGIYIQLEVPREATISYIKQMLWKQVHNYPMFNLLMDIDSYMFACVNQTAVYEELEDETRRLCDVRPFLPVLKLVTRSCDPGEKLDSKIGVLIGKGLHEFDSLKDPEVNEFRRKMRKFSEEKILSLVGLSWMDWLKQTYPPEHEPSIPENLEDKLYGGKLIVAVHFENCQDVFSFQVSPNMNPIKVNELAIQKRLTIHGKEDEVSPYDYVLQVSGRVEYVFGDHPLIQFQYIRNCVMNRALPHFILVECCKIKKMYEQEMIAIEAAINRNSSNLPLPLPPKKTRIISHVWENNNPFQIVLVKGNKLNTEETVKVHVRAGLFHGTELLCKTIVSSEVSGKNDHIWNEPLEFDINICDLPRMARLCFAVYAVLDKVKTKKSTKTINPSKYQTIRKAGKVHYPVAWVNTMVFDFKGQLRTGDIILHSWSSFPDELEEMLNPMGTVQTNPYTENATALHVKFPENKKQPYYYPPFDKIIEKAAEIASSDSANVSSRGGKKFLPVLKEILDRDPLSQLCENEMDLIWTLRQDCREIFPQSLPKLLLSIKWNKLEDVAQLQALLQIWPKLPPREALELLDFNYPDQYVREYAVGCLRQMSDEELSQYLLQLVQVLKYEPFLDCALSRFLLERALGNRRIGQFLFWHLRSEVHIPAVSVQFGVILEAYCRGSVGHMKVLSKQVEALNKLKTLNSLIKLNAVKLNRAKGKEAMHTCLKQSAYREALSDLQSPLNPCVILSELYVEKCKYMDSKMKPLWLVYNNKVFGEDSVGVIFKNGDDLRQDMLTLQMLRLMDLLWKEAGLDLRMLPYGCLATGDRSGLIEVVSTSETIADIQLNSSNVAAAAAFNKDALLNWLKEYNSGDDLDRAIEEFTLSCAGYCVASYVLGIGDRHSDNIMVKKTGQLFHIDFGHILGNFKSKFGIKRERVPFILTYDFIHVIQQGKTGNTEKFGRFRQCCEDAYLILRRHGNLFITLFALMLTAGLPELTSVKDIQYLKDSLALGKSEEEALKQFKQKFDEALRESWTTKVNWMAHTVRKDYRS
# p110β/p85α, sequence (P27986 2-724 partner): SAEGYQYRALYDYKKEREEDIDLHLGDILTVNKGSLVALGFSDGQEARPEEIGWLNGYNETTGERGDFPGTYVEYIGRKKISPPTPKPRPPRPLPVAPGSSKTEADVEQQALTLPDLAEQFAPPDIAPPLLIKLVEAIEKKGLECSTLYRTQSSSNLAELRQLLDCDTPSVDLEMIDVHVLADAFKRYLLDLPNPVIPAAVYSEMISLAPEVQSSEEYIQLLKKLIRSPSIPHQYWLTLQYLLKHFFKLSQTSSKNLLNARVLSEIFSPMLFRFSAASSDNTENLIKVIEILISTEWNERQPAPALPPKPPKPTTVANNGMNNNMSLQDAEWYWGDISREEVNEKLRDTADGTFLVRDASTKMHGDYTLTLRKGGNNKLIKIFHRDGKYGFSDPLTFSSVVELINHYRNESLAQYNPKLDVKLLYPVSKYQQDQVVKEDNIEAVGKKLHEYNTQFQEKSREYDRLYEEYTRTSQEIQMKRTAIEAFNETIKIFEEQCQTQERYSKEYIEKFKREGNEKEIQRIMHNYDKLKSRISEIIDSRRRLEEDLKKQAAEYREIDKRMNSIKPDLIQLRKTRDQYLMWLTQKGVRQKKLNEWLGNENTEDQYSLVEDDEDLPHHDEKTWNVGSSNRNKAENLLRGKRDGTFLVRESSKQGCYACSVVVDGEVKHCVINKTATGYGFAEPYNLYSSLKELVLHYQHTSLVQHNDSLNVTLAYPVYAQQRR
# p110γ, sequence (P48736 whole entry): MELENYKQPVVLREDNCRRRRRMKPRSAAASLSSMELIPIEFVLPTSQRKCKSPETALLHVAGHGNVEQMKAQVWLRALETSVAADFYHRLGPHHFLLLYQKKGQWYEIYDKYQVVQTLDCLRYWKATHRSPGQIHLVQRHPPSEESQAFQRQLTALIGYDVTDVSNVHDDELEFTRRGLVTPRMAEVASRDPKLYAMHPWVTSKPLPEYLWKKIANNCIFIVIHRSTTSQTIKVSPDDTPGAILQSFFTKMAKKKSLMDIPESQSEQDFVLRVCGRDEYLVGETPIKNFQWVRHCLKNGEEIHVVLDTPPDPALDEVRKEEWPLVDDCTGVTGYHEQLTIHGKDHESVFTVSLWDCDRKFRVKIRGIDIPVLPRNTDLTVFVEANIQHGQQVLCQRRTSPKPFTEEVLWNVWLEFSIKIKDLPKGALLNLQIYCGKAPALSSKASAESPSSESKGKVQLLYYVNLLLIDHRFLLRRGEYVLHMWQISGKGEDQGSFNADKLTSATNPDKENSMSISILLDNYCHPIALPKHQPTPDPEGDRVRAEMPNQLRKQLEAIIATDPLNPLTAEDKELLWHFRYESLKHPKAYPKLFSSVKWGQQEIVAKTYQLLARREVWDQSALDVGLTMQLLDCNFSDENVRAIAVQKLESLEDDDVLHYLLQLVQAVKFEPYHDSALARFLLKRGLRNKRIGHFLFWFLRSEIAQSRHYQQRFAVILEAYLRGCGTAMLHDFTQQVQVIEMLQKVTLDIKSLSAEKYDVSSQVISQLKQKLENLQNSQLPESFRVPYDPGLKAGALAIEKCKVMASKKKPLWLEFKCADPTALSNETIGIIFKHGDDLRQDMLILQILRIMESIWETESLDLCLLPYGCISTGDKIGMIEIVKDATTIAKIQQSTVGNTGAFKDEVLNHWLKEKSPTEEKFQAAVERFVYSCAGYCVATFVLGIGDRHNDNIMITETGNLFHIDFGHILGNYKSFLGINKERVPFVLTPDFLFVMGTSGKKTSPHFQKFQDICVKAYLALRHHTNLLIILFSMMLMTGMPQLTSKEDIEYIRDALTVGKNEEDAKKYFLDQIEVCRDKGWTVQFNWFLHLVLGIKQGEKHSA
Compound,PI3Kβ IH % @ 1 uM (p110β/p85α) [%],PI3Kδ IH % @ 1 uM (p110δ/p85α) [%],IC50 (p110δ/p85α) [nM],PI3Kγ IH % @ 1 uM (p110γ) [%],IC50 (p110γ) [nM],IC50 (p110β/p85α) [nM]
Nc1nc2c(c(N3C[C@@H](F)C[C@H]3c3nn4ccc(F)c4c(=O)n3-c3ccccc3)n1)C(=O)CCN2 [Compound 250],33.4,99.1,22,95.8,45,–
CN(C)CCn1c([C@@H]2CCCN2c2ncnc3[nH]cnc23)nn2ccc(Cl)c2c1=O [Compound 251],50.4,88.3,102,56.3,–,–
CN(C)CCn1c([C@@H]2CCCN2c2ncnc3[nH]cc(C#N)c23)nn2ccc(Cl)c2c1=O [Compound 252],56.6,97.0,7,68.9,–,–
O=c1c2c(Cl)ccn2nc([C@@H]2CCCN2c2ncnc3[nH]cnc23)n1CCN1CCOCC1 [Compound 253],45.1,92.8,52,69.0,553,–
N#Cc1c[nH]c2ncnc(N3CCC[C@H]3c3nn4ccc(Cl)c4c(=O)n3CCN3CCOCC3)c12 [Compound 255],72.6,>100,4,>100,73,304
N#Cc1c[nH]c2ncnc(N3CCC[C@H]3c3nn4ccc(Cl)c4c(=O)n3CC3CC3)c12 [Compound 257],82.4,>100,2,>100,18,80
N#Cc1c[nH]c2ncnc(N3CCC[C@H]3c3nn4ccc(Cl)c4c(=O)n3CC3CCCCC3)c12 [Compound 258],10.4,94.7,76,73.0,467,–
CC(C)Cn1c([C@@H]2CCN2c2ncnc3[nH]cc(C#N)c23)nn2ccc(Cl)c2c1=O [Compound 259],41.5,98.8,27,89.5,170,–
CC(C)Cn1c([C@@H]2CCN2c2nc(N)ncc2C#N)nn2ccc(Cl)c2c1=O [Compound 260],39.6,98.0,40,90.9,163,–
N#Cc1c[nH]c2ncnc(N3C[C@@H](O)C[C@H]3c3nn4ccc(Cl)c4c(=O)n3-c3cccc(F)c3)c12 [Compound 261],>100,>100,1,>100,3,31
O=c1c2c(Cl)ccn2nc([C@@H]2C[C@H](O)CN2c2ncnc3[nH]cnc23)n1-c1ccccc1 [Compound 262],88.8,97.1,–,93.4,11,18
CO[C@H]1C[C@@H](c2nn3ccc(Cl)c3c(=O)n2-c2ccccc2)N(c2ncnc3[nH]cnc23)C1 [Compound 263],74.5,>100,4,>100,17,118
"COCCO[C@H]1C[C@@H](c2nn3ccc(Cl)c3c(=O)n2-c2ccccc2)N(c2ncnc3[nH]cc(C#N)c23)C1 [Compound 264, 4-((2S,4S)-2-(5-chloro-4-oxo-3-phenyl-3,4-dihydropyrrolo[2,1-f][1,2,4]triazin-2-yl)-4-(2-methoxyethoxyl)pyrrolidin-1-yl)-7H-pyrrolo[2,3-d]pyrimidine-5-carbonitrile]",92.8,>100,1,>100,3,69
O=c1c2c(Cl)ccn2nc([C@@H]2C[C@H](OCCO)CN2c2ncnc3[nH]cnc23)n1-c1ccccc1 [Compound 265],68.6,>100,1,>100,11,300
COCCO[C@H]1C[C@@H](c2nn3ccc(Cl)c3c(=O)n2-c2ccccc2)N(c2ncnc3[nH]cnc23)C1 [Compound 266],49.9,>100,6,>100,21,–
C[S+]([O-])c1c[nH]c2ncnc(N3C[C@@H](F)C[C@H]3c3nn4ccc(Cl)c4c(=O)n3-c3ccccc3)c12 (some centres unmarked) [Compound 267],73.2,98.9,3,>100,13,206
CC(Nc1ncnc2[nH]cc(S(C)(=O)=O)c12)c1cn2ccc(Cl)c2c(=O)n1-c1ccccc1 (centres unmarked) [Compound 269],38.1,94.7,147,>100,93,–
CC(Nc1ncnc2[nH]cc(F)c12)c1cn2ccc(Cl)c2c(=O)n1-c1ccccc1 (centres unmarked) [Compound 270],87.4,>100,12,89.7,22,174

# Other lines, results leading:
PI3Kβ IH % @ 1 uM (p110β/p85α) [%],PI3Kδ IH % @ 1 uM (p110δ/p85α) [%],IC50 (p110δ/p85α) [nM],PI3Kγ IH % @ 1 uM (p110γ) [%],IC50 (p110γ) [nM],IC50 (p110β/p85α) [nM],Compound
94.2,>100,1,97.6,2,15,CC(Nc1nc(N)ncc1C#N)c1cn2ccc(Cl)c2c(=O)n1-c1ccccc1 (centres unmarked) [Compound 271]
76.9,98.8,7,>100,21,239,CC(=O)c1c[nH]c2ncnc(NC(C)c3cn4ccc(Cl)c4c(=O)n3-c3ccccc3)c12 (centres unmarked) [Compound 272]
98.8,>100,3,98.3,5,12,CC(=O)c1cnc(N)nc1NC(C)c1cn2ccc(Cl)c2c(=O)n1-c1ccccc1 (centres unmarked) [Compound 273]
61.6,97.8,3,86.8,101,–,CC(=O)c1c(N)ncnc1NC(C)c1cn2ccc(Cl)c2c(=O)n1-c1ccccc1 (centres unmarked) [Compound 274]
97.5,>100,0.4,97.8,1,12,CC(Nc1nc(N)nc2c1C(=O)CCN2)c1cn2ccc(Cl)c2c(=O)n1-c1ccccc1 (centres unmarked) [Compound 275]
52.9,99.1,1,95.7,6,–,CC(=O)c1c[nH]c2ncnc(NC(C)c3cn4ccc(Cl)c4c(=O)n3-c3cccc(F)c3)c12 (centres unmarked) [Compound 276]
81.4,99.5,1,97.0,11,247,CC(Nc1ncnc2[nH]cc(C#N)c12)c1cn2ccc(Cl)c2c(=O)n1-c1cccc(F)c1 (centres unmarked) [Compound 277]
43.0,>100,5,92.0,42,–,COCC#Cc1c[nH]c2ncnc(N3CC[C@H]3c3nn4ccc(Cl)c4c(=O)n3-c3ccccc3)c12 [Compound 279]
−2.0,47.0,–,87.2,256,–,Cn1cc(-c2cnc(N)nc2N2CC[C@H]2c2nn3ccc(Cl)c3c(=O)n2-c2ccccc2)cn1 [Compound 280]
11.1,15.7,–,62.2,–,–,CN(C)C(=O)c1cnc(N)nc1N1CC[C@H]1c1nn2ccc(Cl)c2c(=O)n1-c1ccccc1 [Compound 281]
19.9,94.9,–,93.5,–,–,Nc1ncc([N+](=O)[O-])c(N2CC[C@H]2c2nn3ccc(Cl)c3c(=O)n2-c2ccccc2)n1 [Compound 282]
78.0,>100,2,>100,1,137,Cc1nc(N)nc(N2CC[C@H]2c2nn3ccc(Cl)c3c(=O)n2-c2ccccc2)c1C#N [Compound 283]
9.7,51.2,–,51.2,–,–,COc1cnc(N)nc1N1CC[C@H]1c1nn2ccc(Cl)c2c(=O)n1-c1ccccc1 [Compound 284]
79.0,>100,4,>100,37,257,CC(Nc1ncnc2[nH]cc(F)c12)c1cc2ncc(Cl)n2c(=O)n1-c1ccccc1 (centres unmarked) [Compound 285]
25.2,88.8,29,56.2,–,–,CC(Nc1ncnc2[nH]cc(S(C)(=O)=O)c12)c1cc2ncc(Cl)n2c(=O)n1-c1ccccc1 (centres unmarked) [Compound 286]
73.9,>100,5,96.9,68,463,CC(=O)c1c[nH]c2ncnc(NC(C)c3cc4ncc(Cl)n4c(=O)n3-c3ccccc3)c12 (centres unmarked) [Compound 287]
